{
  "source": "paper PMC4558152",
  "about": "“A small molecule inhibitor of atypical protein kinase C signaling inhibits pancreatic cancer cell transformed growth and invasion” (Oncotarget, 2015)",
  "target": "T1, PKCζ (Homo sapiens, UniProt Q05513)",
  "T1 construct": "gene PRKCZ",
  "T1 sequence (Q05513 1-113)": "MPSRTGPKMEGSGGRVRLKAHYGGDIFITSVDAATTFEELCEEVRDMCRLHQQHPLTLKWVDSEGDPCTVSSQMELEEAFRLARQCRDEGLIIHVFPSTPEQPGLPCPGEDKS",
  "T1 sequence (Q9NPB6 whole entry partner)": "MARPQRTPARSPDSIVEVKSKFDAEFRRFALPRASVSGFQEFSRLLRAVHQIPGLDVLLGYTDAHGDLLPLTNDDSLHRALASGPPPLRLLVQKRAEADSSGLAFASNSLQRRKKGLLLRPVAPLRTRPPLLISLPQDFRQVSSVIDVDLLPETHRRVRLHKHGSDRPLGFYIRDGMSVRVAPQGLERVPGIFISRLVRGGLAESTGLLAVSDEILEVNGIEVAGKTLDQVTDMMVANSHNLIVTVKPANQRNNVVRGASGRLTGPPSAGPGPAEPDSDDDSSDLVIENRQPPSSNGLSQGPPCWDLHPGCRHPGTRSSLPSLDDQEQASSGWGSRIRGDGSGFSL",
  "data": [
    {"molecule": "O=C(O)CC([S][Au])C(=O)O", "note": "(stereo not shown) [ATM, Aurothiomalate]", "values": [
      {"measurement": "IC50", "value": 3, "unit": "µM"}
    ]}
  ]
}
